Several values for one entry are separate records, joined by “and”; a condition that tells them apart may be missing. Equal values may be shown once.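 Compound exposure: 48 hours, 5 concentrations, 96-well plates. The concentration for 50% growth inhibition is given as GI50. Definition used: TGI = concentration required for complete inhibition of growth.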
Key:
Assay in all cases: inhibition of tumour cell growth, NCI panel, 48 h
[1] = system: EKVX NSCLC
[2] = system: NCI-H460 lung
[3] = system: SF-295 CNS
[4] = system: UO-31 renal
[5] = system: RPMI-8226 leukemia
[6] = system: HOP-92 NSCLC
[7] = system: NCI-H23 lung
[8] = system: OVCAR-5 ovarian
[9] = system: A549 NSCLC
[10] = system: CAKI-1 renal

| Structure (SMILES) | GI50 [1] | TGI [1] | GI50 [2] | TGI [2] | GI50 [3] | TGI [3] | GI50 [4] | TGI [4] | GI50 [5] | TGI [5] | GI50 [6] | TGI [6] | GI50 [7] | TGI [7] | GI50 [8] | TGI [8] | GI50 [9] | TGI [9] | GI50 [10] | TGI [10] |
| --- | --- | --- | --- | --- | --- | --- | --- | --- | --- | --- | --- | --- | --- | --- | --- | --- | --- | --- | --- | --- |
| CCc1n(Cc2ccc3ccccc3n2)cc[n+]1Cc1ccc2ccccc2n1 | 0.343 µM | 41.5 µM | 0.511 µM | 11.9 µM | 2.81 µM | 20.1 µM | 21.2 µM | > 100 µM | 0.0172 µM | 10.1 µM | 0.0183 µM | 0.521 µM | 0.257 µM | 8.66 µM | 1.48 µM | 22.9 µM | 5.27 µM | > 100 µM |  |  |
| O=C(O)C1C2CCC(O2)C1C(=O)N1CCCCC1 (centres undefined) |  | 29.2 µM |  | 39.2 µM |  | 23.9 µM |  | 46 µM |  | 7.88 µM |  | 7.33 µM |  | 33.4 µM |  | 62.8 µM |  | > 100 µM |  |  |
| CC(C)CNCC(O)COc1ccc(C(C)(C)c2ccc(OCC(O)CNCC(C)C)cc2)cc1 (centres undefined) | 3.78 µM | 17.8 µM | 1.97 µM | 4.11 µM | 2.36 µM | 6.68 µM | 1.53 µM | 2.89 µM | 1.88 µM | 4.42 µM | 1.48 µM | 9.17 µM | 11.7 µM | 25.5 µM | 6.1 µM | 20.2 µM | 2.08 µM | 4.84 µM |  |  |
| O=[N+]([O-])c1ccc(S(=O)Cc2ccccc2)c([N+](=O)[O-])c1 (centres undefined) | 12.8 µM | 26.6 µM | 16.4 µM | 33.2 µM | 13.2 µM | 26.9 µM | 1.47 µM | 2.91 µM | 1.89 µM | 4.46 µM |  |  | 2.54 µM | 8.91 µM | 14.5 µM | 29.9 µM | 16.3 µM | 36.3 µM | 1.85 µM | 3.85 µM |
| CS(=O)(=O)OCCN1CCN(C(=O)c2cccc3c(Nc4ccc(S(=O)(=O)N=C(N)N)cc4)c4ccccc4nc23)CC1 |  |  |  | > 100 µM |  | > 100 µM |  | > 100 µM |  | > 100 µM |  | > 100 µM |  | > 100 µM |  | > 100 µM |  | > 100 µM |  | > 100 µM |
| CCN(CC)CCNc1ccc([N+](=O)[O-])c2sc3ccccc3c(=O)c12 | 0.692 µM | 2.53 µM | 0.443 µM | 1.96 µM |  |  | 0.284 µM | 1.66 µM | 0.915 µM | 2.84 µM | 1.26 µM | 3.36 µM | 1.23 µM | 2.78 µM | 3.47 µM | 15.2 µM | 0.656 µM | 2.15 µM |  |  |
| FC(F)(F)c1cc(-c2nnc3n2N=C(N2CCCC2)CS3)cc(C(F)(F)F)c1 | > 50 µM | > 50 µM | 7.15 µM | > 50 µM | 19.2 µM | > 50 µM | > 50 µM | > 50 µM | > 50 µM | > 50 µM | 25.9 µM | > 50 µM | > 50 µM | > 50 µM | > 50 µM | > 50 µM |  |  | > 50 µM | > 50 µM |
| O=C(/C=C/c1ccccc1)CC1OC(=O)c2ccccc21 (centres undefined) |  | > 100 µM |  | > 100 µM |  | > 100 µM |  | > 100 µM |  | 82.5 µM |  | > 100 µM |  | > 100 µM |  | > 100 µM |  | > 100 µM |  |  |
| Nc1nc2c(c(=O)[nH]1)NC(CO)CN2 (centres undefined) |  | > 100 µM |  | > 100 µM |  | > 100 µM |  | > 100 µM |  | > 100 µM |  |  |  | > 100 µM |  |  |  | > 100 µM |  |  |
| CC(=O)N[C@@H]1C(O)CN2C(=O)C(=O)O[C@H](C(O)CO)[C@@H]12 (some centres undefined) |  | > 100 µM |  | > 100 µM |  | > 100 µM |  | > 100 µM |  | > 100 µM |  | > 100 µM |  |  |  | > 100 µM |  | > 100 µM |  |  |
| CC1CC#CCOC(=O)CCCC1=O (centres undefined) |  |  |  | > 100 µM |  | > 100 µM |  |  |  | > 100 µM |  |  |  | > 100 µM |  |  |  | > 100 µM |  |  |
| COc1ccccc1N=C(N)N/N=C/c1c[nH]c2ccccc12 |  | 23.2 µM |  | 22.8 µM |  | 21.3 µM |  | 27.1 µM |  | 32.1 µM |  |  |  | 19.2 µM |  | 26.9 µM |  | 26.6 µM |  | 26.7 µM |
| CC[C@@]1(O)C[C@H](OC2CC(N(C)C)C(OC3CC(O)C(OC4CCC(=O)C(C)O4)C(C)O3)C(C)O2)c2c(cc3c(c2O)C(=O)c2c(O)cccc2C3=O)[C@H]1C(=O)OC (some centres undefined) |  | 0.415 µM and 0.452 µM |  | 0.06 µM and 0.0662 µM |  | 0.224 µM and 0.92 µM |  |  | 0.00904 µM and 0.00447 µM | 0.261 µM and 0.743 µM |  | 0.129 µM and 0.161 µM |  | 0.12 µM and 0.125 µM |  | 0.22 µM and 0.457 µM |  |  |  | 0.179 µM and 0.373 µM |
| COC[C@@H](N=CN1CCc2cc(OC)c(OC)cc2[C@@H]1C)C(C)(C)C |  | > 100 µM |  | > 100 µM |  | > 100 µM |  | > 100 µM |  | > 100 µM |  | > 100 µM |  | > 100 µM |  |  |  | > 100 µM |  | > 100 µM |
| NCCCOCC(=O)O |  | > 100 µM |  |  |  | > 100 µM |  | > 100 µM |  | > 100 µM |  | > 100 µM |  | > 100 µM |  | > 100 µM |  | > 100 µM |  |  |
| CC(=O)Nc1ccc(C(=O)NN2C(=O)C(Cl)C2c2ccc([N+](=O)[O-])cc2)cc1 (centres undefined) |  | > 100 µM |  | > 100 µM |  | > 100 µM |  | > 100 µM |  |  |  | > 100 µM |  | > 100 µM |  | > 100 µM |  | > 100 µM |  | > 100 µM |
| C=CC1[C@H]2COC(C)(C)O[C@@H]2CC(=O)C1(C)C (some centres undefined) |  | > 100 µM |  | > 100 µM |  | > 100 µM |  | > 100 µM |  |  |  | > 100 µM |  | > 100 µM |  | > 100 µM |  | > 100 µM |  | > 100 µM |
| O=C1C=CC=CC2CC=C[C@@H](O)C12 (some centres undefined) |  | 63.5 µM |  | 38 µM |  | 48.5 µM |  | 31.5 µM |  | 15.3 µM |  |  |  |  |  | 63 µM |  | 67.7 µM |  | > 100 µM |
| COc1cc(/C=C2\CCC/C(=C\c3cc(OC)c(O)c(OC)c3)C2=O)cc(OC)c1O | 5.14 µM | 75 µM and > 100 µM |  | 10.7 µM | 4.98 µM |  | 2.05 µM | 3.46 µM and 4.97 µM |  | 7.54 µM |  |  |  | 3.5 µM and 4.19 µM | 5.22 µM | 7.4 µM and 63.3 µM | 3.14 µM |  | 2.51 µM | 4.38 µM and 7.62 µM |
